Source: US10479784B2, “Substituted pyrazin-2-amines as inhibitors of ATR kinase” (Vertex Pharmaceuticals Incorporated, priority 2008, dated 2019)

Biological target: full-length ATR (Homo sapiens (Human), UniProt Q13535)
Assay: ATR Inhibition Assay (radioactive-phosphate incorporation)
Format: biochemical
Details: read-out: ATR Ki
Procedure, shortened: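 Ki(app) was derived by non-linear regression of background-corrected initial rates of 33P incorporation into an 800 μM target peptide, read by phosphocellulose filter scintillation counting. Reaction conditions: 5 nM full-length ATR, 10 μM [γ-33P]ATP, pH 7.5 Tris buffer with MgCl2 and DTT, 25 °C, 10-min preincubation, 24 h run.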

Chain of full-length ATR (Q13535 whole entry): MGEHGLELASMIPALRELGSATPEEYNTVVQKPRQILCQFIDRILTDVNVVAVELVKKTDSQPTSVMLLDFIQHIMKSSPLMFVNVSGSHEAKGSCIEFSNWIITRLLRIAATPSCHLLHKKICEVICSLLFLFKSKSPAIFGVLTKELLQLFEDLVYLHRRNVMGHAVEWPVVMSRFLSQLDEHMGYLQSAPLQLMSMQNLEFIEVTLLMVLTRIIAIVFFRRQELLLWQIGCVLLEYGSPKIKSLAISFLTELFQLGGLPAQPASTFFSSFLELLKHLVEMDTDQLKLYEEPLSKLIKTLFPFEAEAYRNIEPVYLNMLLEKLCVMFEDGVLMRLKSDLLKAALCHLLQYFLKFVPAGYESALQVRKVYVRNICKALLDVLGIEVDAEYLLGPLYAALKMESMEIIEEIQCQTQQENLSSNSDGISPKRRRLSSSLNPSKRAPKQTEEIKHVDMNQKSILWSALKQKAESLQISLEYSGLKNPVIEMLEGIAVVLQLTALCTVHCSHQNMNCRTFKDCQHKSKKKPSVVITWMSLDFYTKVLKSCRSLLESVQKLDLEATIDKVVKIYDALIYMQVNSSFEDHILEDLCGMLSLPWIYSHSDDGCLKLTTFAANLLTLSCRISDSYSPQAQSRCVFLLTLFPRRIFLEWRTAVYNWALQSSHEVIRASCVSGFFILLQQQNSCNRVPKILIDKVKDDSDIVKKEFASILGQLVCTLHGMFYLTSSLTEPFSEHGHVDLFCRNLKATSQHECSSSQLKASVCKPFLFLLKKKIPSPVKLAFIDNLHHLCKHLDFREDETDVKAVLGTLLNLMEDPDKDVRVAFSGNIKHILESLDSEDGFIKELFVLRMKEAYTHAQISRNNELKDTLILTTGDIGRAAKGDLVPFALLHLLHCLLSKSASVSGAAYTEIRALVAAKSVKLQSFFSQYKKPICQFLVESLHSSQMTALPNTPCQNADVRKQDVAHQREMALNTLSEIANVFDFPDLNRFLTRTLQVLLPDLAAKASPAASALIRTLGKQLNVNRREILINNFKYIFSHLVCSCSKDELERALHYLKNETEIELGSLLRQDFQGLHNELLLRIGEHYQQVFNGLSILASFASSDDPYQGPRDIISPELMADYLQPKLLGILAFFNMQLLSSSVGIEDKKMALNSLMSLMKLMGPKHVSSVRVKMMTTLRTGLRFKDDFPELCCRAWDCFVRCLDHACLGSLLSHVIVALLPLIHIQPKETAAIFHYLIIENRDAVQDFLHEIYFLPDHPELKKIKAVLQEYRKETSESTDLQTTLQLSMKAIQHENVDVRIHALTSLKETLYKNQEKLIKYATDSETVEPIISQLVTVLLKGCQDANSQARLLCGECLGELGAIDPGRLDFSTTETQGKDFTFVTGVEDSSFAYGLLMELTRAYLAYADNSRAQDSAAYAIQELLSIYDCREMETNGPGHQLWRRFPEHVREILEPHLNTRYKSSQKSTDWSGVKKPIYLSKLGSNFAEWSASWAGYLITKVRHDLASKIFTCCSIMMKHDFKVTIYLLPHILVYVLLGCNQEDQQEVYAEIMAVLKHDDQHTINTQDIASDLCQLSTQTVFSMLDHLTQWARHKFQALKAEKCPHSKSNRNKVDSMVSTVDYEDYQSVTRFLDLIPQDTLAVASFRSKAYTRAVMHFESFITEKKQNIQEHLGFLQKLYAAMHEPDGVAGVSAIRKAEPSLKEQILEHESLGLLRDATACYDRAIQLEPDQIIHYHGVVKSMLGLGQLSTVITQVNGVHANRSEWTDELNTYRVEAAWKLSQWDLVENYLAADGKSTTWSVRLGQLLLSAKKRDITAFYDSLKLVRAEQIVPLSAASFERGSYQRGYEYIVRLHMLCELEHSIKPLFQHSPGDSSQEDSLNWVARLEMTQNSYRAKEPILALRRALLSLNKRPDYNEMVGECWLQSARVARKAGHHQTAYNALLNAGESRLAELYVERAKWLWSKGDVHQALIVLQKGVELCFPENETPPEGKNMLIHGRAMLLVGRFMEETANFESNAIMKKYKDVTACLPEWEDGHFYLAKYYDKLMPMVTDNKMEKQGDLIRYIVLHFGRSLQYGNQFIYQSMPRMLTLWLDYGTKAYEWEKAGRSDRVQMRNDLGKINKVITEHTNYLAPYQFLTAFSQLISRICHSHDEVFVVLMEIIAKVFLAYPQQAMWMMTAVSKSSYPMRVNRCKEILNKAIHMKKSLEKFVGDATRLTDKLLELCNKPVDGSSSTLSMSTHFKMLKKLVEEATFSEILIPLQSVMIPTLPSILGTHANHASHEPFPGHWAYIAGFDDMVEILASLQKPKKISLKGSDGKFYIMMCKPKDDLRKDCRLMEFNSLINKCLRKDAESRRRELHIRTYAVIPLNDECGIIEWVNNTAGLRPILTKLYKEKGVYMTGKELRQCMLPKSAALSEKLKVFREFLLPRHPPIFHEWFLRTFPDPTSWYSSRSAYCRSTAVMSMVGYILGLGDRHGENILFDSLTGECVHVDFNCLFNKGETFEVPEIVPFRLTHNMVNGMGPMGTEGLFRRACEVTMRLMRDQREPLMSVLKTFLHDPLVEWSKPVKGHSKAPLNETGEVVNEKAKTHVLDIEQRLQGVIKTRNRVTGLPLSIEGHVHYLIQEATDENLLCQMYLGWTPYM

Row | SMILES | Ki [nM]
1 | Nc1ncc(-c2ccc(C(=O)N3CCNCC3)c(F)c2)nc1-c1nnc(-c2ccccc2)o1 [IA-7] | 10 to 100
2 | CN1CCN(C(=O)c2ccc(-c3cnc(N)c(-c4nnc(-c5ccccc5)o4)n3)cc2)CC1 [IA-9] | ≤ 10
3 | CN(C)[C@@H]1CCN(C(=O)c2ccc(-c3cnc(N)c(-c4nnc(-c5ccccc5)o4)n3)cc2)C1 [IA-10] | ≤ 10
4 | CCOC(=O)N1CCN(C(=O)c2ccc(-c3cnc(N)c(-c4nnc(-c5ccccc5)o4)n3)cc2)CC1 [IA-11] | 10 to 100
5 | Nc1ncc(-c2ccc(C(=O)N3CCNCC3)cc2)nc1-c1nnc(-c2ccccc2)o1 [IA-12] | 10 to 100
6 | Nc1ncc(-c2ccc(C(=O)N3CCOCC3)cc2)nc1-c1nnc(-c2ccccc2)o1 [IA-13] | 10 to 100
7 | COCCN(C)C(=O)c1ccc(-c2cnc(N)c(-c3nnc(-c4ccccc4)o3)n2)cc1 [IA-14] | ≤ 10
8 | Nc1ncc(-c2ccc(C(=O)N3CCCOCC3)cc2)nc1-c1nnc(-c2ccccc2)o1 [IA-15] | ≤ 10
9 | Nc1ncc(-c2ccc(C(=O)N3CCNC(C(F)(F)F)C3)cc2)nc1-c1nnc(-c2ccccc2)o1 (stereo not shown) [IA-16] | ≤ 10
10 | CC1CN(C(=O)c2ccc(-c3cnc(N)c(-c4nnc(-c5ccccc5)o4)n3)cc2)CCN1 (stereo not shown) [IA-17] | 10 to 100
11 | CCC1CN(C(=O)c2ccc(-c3cnc(N)c(-c4nnc(-c5ccccc5)o4)n3)cc2)CCN1 (stereo not shown) [IA-18] | ≤ 10
12 | CC(C)(C)OC(=O)N1CCCN(C(=O)c2ccc(-c3cnc(N)c(-c4nnc(-c5ccccc5)o4)n3)c(C#N)c2)CC1 [IA-19] | ≤ 10
13 | N#Cc1cc(C(=O)N2CCCNCC2)ccc1-c1cnc(N)c(-c2nnc(-c3ccccc3)o2)n1 [IA-20] | ≤ 10
14 | CN(C)C1CCN(C(=O)c2c(F)cc(-c3cnc(N)c(-c4nnc(-c5ccccc5)o4)n3)cc2F)CC1 [IA-21] | 10 to 100
15 | CN(C)C1CCN(C(=O)c2ccc(-c3cnc(N)c(-c4nnc(-c5ccccc5)o4)n3)c(C(F)(F)F)c2)CC1 [IA-22] | 10 to 100
16 | CN(C)C(=O)c1ccc(-c2cnc(N)c(-c3nnc(-c4ccccc4)o3)n2)cc1 [IA-23, 4-(5-amino-6-(5-phenyl-1,3,4-oxadiazol-2-yl)pyrazin-2-yl)-N,N-dimethylbenzamide] | ≤ 10
17 | Nc1ncc(-c2ccc(S(=O)(=O)N3CCNCC3)cc2)nc1-c1nnc(-c2ccccc2)o1 [IA-24] | 10 to 100
18 | CN(C)[C@@H]1CCN(S(=O)(=O)c2ccc(-c3cnc(N)c(-c4nnc(-c5ccccc5)o4)n3)cc2)C1 [IA-25] | 10 to 100
19 | Nc1ncc(-c2ccc(S(=O)(=O)NCCO)cc2)nc1-c1nnc(-c2ccccc2)o1 [IA-26] | ≤ 10
20 | CC(C)(C)OC(=O)N1CCCN(C(=O)c2ccc(-c3cnc(N)c(-c4nnc(-c5ccccc5)o4)n3)cc2)CC1 [IA-28] | ≤ 10
21 | Nc1ncc(-c2ccc(C(=O)N3CCCN(C=O)CC3)cc2)nc1-c1nnc(-c2ccccc2)o1 [IA-29] | ≤ 10
22 | CN(C)C(=O)c1ccc(-c2cnc(N)c(-c3nnc(-c4ccccc4F)o3)n2)cc1 [IA-30] | ≤ 10
23 | CC(C)(C)CC(=O)N1CCCN(C(=O)c2ccc(-c3cnc(N)c(-c4nnc(-c5ccccc5)o4)n3)cc2)CC1 [IA-31] | ≤ 10

Row | SMILES | Ki [nM]
24 | CN(C)C(=O)c1ccc(-c2cnc(N)c(-c3nnc(Nc4ccccc4)o3)n2)cc1 [IA-32] | 10 to 100
25 | CNc1nnc(-c2nc(-c3ccc(C(=O)N(C)C)cc3)cnc2N)o1 [IA-33] | 100 to 5000
26 | COC(=O)N1CCCN(C(=O)c2ccc(-c3cnc(N)c(-c4nnc(-c5ccccc5)o4)n3)cc2)CC1 [IA-34] | ≤ 10
27 | N#Cc1cnccc1-c1cnc(N)c(-c2nnc(-c3ccccc3)o2)n1 [IA-35] | ≤ 10
28 | CN(C)C(=O)c1ccc(-c2cnc(N)c(-c3nnc(-c4ccc(F)cc4)o3)n2)cc1 [IA-36] | 10 to 100
29 | Nc1ncc(-c2cnc(C(=O)N3CCCNCC3)nc2)nc1-c1nnc(-c2ccccc2)o1 [IA-37] | 10 to 100
30 | Nc1ncc(-c2cc(F)c(C(=O)N3CCCNCC3)c(F)c2)nc1-c1nnc(-c2ccccc2)o1 [IA-38] | 10 to 100
31 | Nc1ncc(-c2ccc(C(=O)N3CCCNCC3)cc2C(F)(F)F)nc1-c1nnc(-c2ccccc2)o1 [IA-39] | ≤ 10
32 | CN(C)C(=O)c1ccc(-c2cnc(N)c(-c3nnc(-c4cccc(F)c4)o3)n2)cc1 [IA-40, 4-(5-amino-6-(5-(3-fluorophenyl)-1,3,4-oxadiazol-2-yl)pyrazin-2-yl)-N,N-dimethylbenzamide] | 10 to 100
33 | CN(C)C(=O)c1ccc(-c2cnc(N)c(-c3nnc(-c4cccnc4)o3)n2)cc1 [IA-41] | 10 to 100
34 | CN(C)C(=O)c1ccc(-c2cnc(N)c(-c3nnc(Nc4ccc(Cl)cc4)o3)n2)cc1 [IA-42] | 10 to 100
35 | CN(C)C(=O)c1ccc(-c2cnc(N)c(-c3nnc(Nc4cccc(Cl)c4)o3)n2)cc1 [IA-43] | 10 to 100
36 | CN(C)C(=O)c1ccc(-c2cnc(N)c(-c3nnc(Nc4cccnc4)o3)n2)cc1 [IA-44] | 10 to 100
37 | CN(C)C(=O)c1ccc(-c2cnc(N)c(-c3nnc(N4CCOCC4)o3)n2)cc1 [IA-45] | 100 to 5000
38 | CN(C)C(=O)c1ccc(-c2cnc(N)c(-c3nnc(-c4ccccc4)o3)n2)c(Cl)c1 [IA-46] | 10 to 100
39 | Nc1ncc(-c2ccc(C(=O)N3CCCNCC3)nc2)nc1-c1nnc(-c2ccccc2)o1 [IA-47] | ≤ 10
40 | Nc1ncc(-c2ccccc2)nc1-c1nnc(-c2ccccc2)o1 [IA-49] | 10 to 100
41 | N#Cc1ccccc1-c1cnc(N)c(-c2nnc(-c3ccccc3)o2)n1 [IA-50] | 10 to 100
42 | CN(C)C(=O)c1ccc(-c2cnc(N)c(-c3nnc(-c4ccccn4)o3)n2)cc1 [IA-51] | 10 to 100
43 | CN(C)C(=O)c1ccc(-c2cnc(N)c(-c3nnc(-c4cccs4)o3)n2)cc1 [IA-52] | ≤ 10
44 | CN(C)C(=O)c1ccc(-c2cnc(N)c(-c3nnc(-c4ccc[nH]c4=O)o3)n2)cc1 [IA-53] | 10 to 100
45 | CN(C)C(=O)c1ccc(-c2cnc(N)c(-c3nnc(NC4CCNCC4)o3)n2)cc1 [IA-54] | 100 to 5000
46 | CN(C)C(=O)c1ccc(-c2cnc(N)c(-c3nnc(NCc4ccccc4)o3)n2)cc1 [IA-55, 4-(5-amino-6-(5-(benzylamino)-1,3,4-oxadiazol-2-yl)pyrazin-2-yl)-N,N-dimethylbenzamide] | 100 to 5000

Row | SMILES | Ki [nM]
47 | CC(C)c1ccccc1-c1cnc(N)c(-c2nnc(-c3ccccc3)o2)n1 [IA-56] | 100 to 5000
48 | CCc1ccccc1-c1cnc(N)c(-c2nnc(-c3ccccc3)o2)n1 [IA-57] | 100 to 5000
49 | Nc1ccccc1-c1cnc(N)c(-c2nnc(-c3ccccc3)o2)n1 [IA-58] | 10 to 100
50 | Nc1ncc(-c2cccc3[nH]ccc23)nc1-c1nnc(-c2ccccc2)o1 [IA-59] | 10 to 100
51 | Nc1ncc(-c2ccncc2)nc1-c1nnc(-c2ccccc2)o1 [IA-60] | ≤ 10
52 | Nc1ncc(-c2ccccc2O)nc1-c1nnc(-c2ccccc2)o1 [IA-61] | 10 to 100
53 | Nc1ncc(-c2ccc3ncccc3c2)nc1-c1nnc(-c2ccccc2)o1 [IA-63] | 10 to 100
54 | Nc1ncc(-c2cccnc2)nc1-c1nnc(-c2ccccc2)o1 [IA-64] | 10 to 100
55 | COc1ccccc1-c1cnc(N)c(-c2nnc(-c3ccccc3)o2)n1 [IA-65] | 100 to 5000
56 | CC(=O)Nc1cccc(-c2cnc(N)c(-c3nnc(-c4ccccc4)o3)n2)c1 [IA-66] | 10 to 100
57 | CN(C)C(=O)c1ccc(-c2cnc(N)c(-c3nnc(-c4ccncc4)o3)n2)cc1 [IA-67] | 10 to 100
58 | Nc1ncc(-c2ccc(C(=O)N3CCCNCC3)cc2)nc1-c1nnc(-c2ccccc2)s1 [IA-68, (4-(5-amino-6-(5-phenyl-1,3,4-thiadiazol-2-yl)pyrazin-2-yl)phenyl)(1,4-diazepan-1-yl)methanone] | ≤ 10
59 | CN(C)C(=O)c1ccc(-c2cnc(N)c(-c3nnc(-c4cccc(CCO)c4)o3)n2)cc1 [IA-69, 4-[5-amino-6-[5-[3-(2-hydroxyethyl)phenyl]-1,3,4-oxadiazol-2-yl]pyrazin-2-yl]-N,N-dimethyl-benzamide] | 10 to 100
60 | CC(C)S(=O)(=O)c1ccc(-c2cnc(N)c(-c3nnc(-c4ccc(C(=N)N)cc4)o3)n2)cc1 [IA-70, 4-[5-[3-amino-6-(4-isopropylsulfonylphenyl)pyrazin-2-yl]-1,3,4-oxadiazol-2-yl]benzamidine] | ≤ 10
61 | Cc1ccccc1-c1nnc(-c2nc(-c3ccc(C(=O)N(C)C)cc3)cnc2N)o1 [IA-71, 4-[5-amino-6-[5-(o-tolyl)-1,3,4-oxadiazol-2-yl]pyrazin-2-yl]-N,N-dimethyl-benzamide] | ≤ 10
62 | Nc1ncc(-c2ccc(NCCN3CCOCC3)nc2)nc1-c1nnc(-c2ccccc2)o1 [IA-72, 5-[6-(2-morpholinoethylamino)-3-pyridyl]-3-(5-phenyl-1,3,4-oxadiazol-2-yl)pyrazin-2-amine] | 100 to 5000
63 | CN(C)C(=O)c1ccc(-c2cnc(N)c(-c3nnc(-c4cccc(CNC(=O)OC(C)(C)C)c4)o3)n2)cc1 [IA-73, tert-butyl N-[[3-[5-[3-amino-6-[4-(dimethylcarbamoyl)phenyl]pyrazin-2-yl]-1,3,4-oxadiazol-2-yl]phenyl]methyl]carbamate] | ≤ 10
64 | N#Cc1ncccc1-c1cnc(N)c(-c2nnc(-c3ccccc3)o2)n1 [IA-74, 3-[5-amino-6-(5-phenyl-1,3,4-oxadiazol-2-yl)pyrazin-2-yl]pyridine-2-carbonitrile] | ≤ 10
65 | CN(C)C(=O)c1ccc(-c2cnc(N)c(-c3nnc(-c4ccc(CO)cc4)o3)n2)cc1 [IA-76, 4-[5-amino-6-[5-[4-(hydroxymethyl)phenyl]-1,3,4-oxadiazol-2-yl]pyrazin-2-yl]-N,N-dimethyl-benzamide] | ≤ 10
66 | CC(C)S(=O)(=O)c1ccc(-c2cnc(N)c(-c3nnc(CC(=O)O)o3)n2)cc1 [IA-78, 2-[5-[3-amino-6-(4-isopropylsulfonylphenyl)pyrazin-2-yl]-1,3,4-oxadiazol-2-yl]acetic acid] | 10 to 100
67 | CC(C)S(=O)(=O)c1ccc(-c2cnc(N)c(-c3nnc(C(=O)N4CCCNCC4)o3)n2)cc1 [IA-79, [5-[3-amino-6-(4-isopropylsulfonylphenyl)pyrazin-2-yl]-1,3,4-oxadiazol-2-yl]-(1,4-diazepan-1-yl)methanone] | 10 to 100
